Experiments:
CARP gene [1] = experiment: CARP gene expression in primary neonatal rat cardiomyocytes, TaqMan quantification; format: cell-based; conditions: serum-removed medium, added to 10 nM, 100 nM or 1000 nM, at maximum
CARP gene [2] = experiment: CARP gene expression in H9c2 cells, TaqMan PCR; format: cell-based, rat; conditions: serum-free DMEM, 10 nM or 100 nM, 4 hours and 8 hours, at maximum
Procedure: H9c2 cell is a cell line derived from rat cardiomyocytes and was purchased from ATCC. The cells were incubated in DMEM medium supplemented with 10% calf serum. After recovery of cells using trypsin, the cells were inoculated on a 12-well plate in 100000 cells/well, followed by incubation in a 10% calf serum-containing DMEM medium for 12 hours. Thereafter, the medium was exchanged with a fresh serum-free DMEM medium, to which norepinephrine was supplemented in 10 nM or 100 nM, and the CARP gene expression level was quantitatively determined by TaqMan PCR with passage of 4 hours and 8 hours. Also, the copy number of […] gene (G3PDH) was quantitatively determined in a similar manner, and the copy number of CARP gene calculated was corrected by G3PDH. […] According to this system, the CARP gene expression can be quantitatively determined in response to various hypertrophic stimuli or in the apoptosis induction stage, and thus the system can be used for screening a CARP gene expression regulator. Moreover, by performing reporter gene assay using a promoter of the CARP gene, a low variation rate can be changed to a high variation rate to achieve high sensitization, thus enabling to high throughput screening.

SMILES | increase of expression of the CARP gene (CARP gene [1]) | increase of expression level of CARP gene (corrected by G3PDH) (CARP gene [2])
CC[C@H](C)[C@H](NC(=O)[C@H](CC(=O)O)NC(=O)[C@H](CC(C)C)NC(=O)[C@H](Cc1c[nH]cn1)NC(=O)[C@@H]1CSSC[C@H](N)C(=O)N[C@@H](CO)C(=O)N[C@H]2CSSC[C@H](NC(=O)[C@H](CCC(=O)O)NC(=O)[C@H](CCCCN)NC(=O)[C@H](CC(=O)O)NC(=O)[C@H](CCSC)NC(=O)[C@H](CC(C)C)NC(=O)[C@H](CO)NC(=O)[C@H](CO)NC2=O)C(=O)N[C@@H](C(C)C)C(=O)N[C@@H](Cc2ccc(O)cc2)C(=O)N[C@@H](Cc2ccccc2)C(=O)N1)C(=O)N[C@H](C(=O)N[C@@H](Cc1c[nH]c2ccccc12)C(=O)O)[C@@H](C)CC [endothelin] | about 3 times | –
NC[C@H](O)c1ccc(O)c(O)c1 [norepinephrine] | about 3 times | ~2 fold
